Results from patent EP0238198A2, “Method of modifying the lipid structure function and expression of cell membranes and pharmaceutical compositions for use therein” (Habib, Nagy Adly, priority 1986, dated 1987).
Entries after “also recorded” stand apart in the source; their conditions may differ.

Tests used:
[1] = system: Primary rat fibroblasts (from alveolar tissue); experiment: colony inhibition test (clonogenic assay); assay type: cell-based; settings: for Mean no colonies ± SE: 5 days, medium control 55.0±4.6
Description: (§1) Cells from rat mammary carcinoma (Sp 22), primary rat fibroblasts (from alveolar tissue) and four rat hepatoma cell lines (D23, D261, D262A and D262B) were studied.
(§2) The method used for rat cells was as follows: 200 cells were plated per dish in 1 ml 'Eagles' methionine enriched medium (MEM) + 10% newborn calf serum (NBCS) in 30 mm culture dishes and incubated for four hours at 37°C. […] Dilutions containing 20 µg/ml, […], 200 ng/ml and 2 ng/ml were prepared, 1 ml of each dilution was added to four dishes of cells, the final concentration being half the concentration of the material added. […] To control dishes 1 ml of MEM + NBCS was added, or 1 ml of MEM + NBCS + 1% ethanol. The dishes were incubated for 5 days. Medium was then removed, and the cell colonies were rinsed with 0.9% W/V NaCl solution and fixed for 15 minutes with methanol. Cell colonies were stained with 1% aqueous crystal violet and the dishes were allowed to dry.

[2] = system: three cancer cell lines from bladder, testis and hepatoma (liver cancer); experiment: clonogenic assay with three cancer cell lines; assay type: cell-based; parameters: inhibition of cell division: dose or concentration left out as unconfirmed
Description: In vitro studies have been conducted using a clonogenic assay utilising three cancer cell lines from bladder, testis and hepatoma (liver cancer), incubating the cells for two weeks with saturated fatty acids. The control cells were incubated without any addition. The control cells grew during this time period and formed multiple colonies, as was expected.

mammary carcinoma = experiment: NMU-induced mammary carcinoma in rats, Example 1; assay type: in vivo, female Sprague-Dawley rats
Description: NMU was administered intravenously to thirty female Sprague-Dawley rats weighing approximately 200g. It has been well established that with this animal model breast cancers will develop in the majority by 12 weeks from the commencement of the giving of the carcinogen (Gullino, P.M., Pettigrew, H.M., and Grantham, E.H., I. National Cancer Inst. 1975, 54, 401-409). The rats were divided into two groups, with those of the first group (twenty rats) receiving NMU alone, and those of the second group (ten rats) receiving NMU plus stearic acid. NMU in 3% acetic acid was dissolved in distilled water (20mg/ml) and was given in three intravenous injections of 5mg/100g body weight at weeks 1, 4 and 8. […] The onset of tumours was monitored by daily inspection and by palpation of the mammary regions twice weekly. At week 22, all surviving animals were sacrificed, and autopsies were performed. The tumours located thereby were dissected and examined histologically. In the control animals who were given carcinogen alone 19 out of the 20 animals had developed breast cancers by week 16 of the experiment, with a mean latent period of 72 days. […] The range of tumour weight/rat was 5g to 47.8g with a mean value of 23.6g per rat (excluding the tumour free animal). […] These five rats had seven tumours in all, with a mean of 1.4 tumours per rat (p less than 0.001 compared to the control group). The range of tumour weight/rat was 4.2g to 21.2g, with an average of 16.4g/rat (p less than 0.01 compared to the control group). […] Of the remaining 8 live rats from this group which were killed at week 22, only three had tumours, the other five being tumour-free.

[3] = system: RT112 (transitional cell carcinoma of the bladder); experiment: tumour cell colony inhibition test (clonogenic assay); assay type: cell-based, human
Description: as §1
(§3) The human tumour cell lines were investigated as follows: 500 exponentially-growing RTl12 (transitional cell carcinoma of the bladder) cells or two hundred 833K (non-seminomatous testicuLar.germ cell tumour) cells were plated in 5 cm dishes in RPMI1640 medium supplemented with 5% foetal calf serum and 2 mM 1-glutamine. […] Following a further 14 days incubation colonies were fixed, stained and counted. Colony-forming efficiency of the treated cells was expressed as a proportion of that in the controls. The experiments were repeated three times to permit statistical analysis.

[4] = system: 833K (non-seminomatous testicular germ cell tumour); experiment: as above; assay type: cell-based, human
Description: as §1, §3

[5] = system: human embryonic lung fibroblasts; experiment: cell growth / cytotoxicity in the HSV2 host cell cultures (cell counting); assay type: cell-based; settings: stearic acid 100 micromolar
D262A Rat hepatoma = experiment: tumour cell colony inhibition test (clonogenic assay); assay type: cell-based; parameters: inhibition of colony formation: dose or concentration left out as unconfirmed; settings: for Mean no colonies ± SE: 5 days, medium control 245.0±11.9
Description: as §1
as §2, with “37°C. All became firmly adherent during this initial incubation.” for “37°C.”

malignant cells = experiment: tumour development in animals implanted with malignant cells; assay type: in vivo
[6] = Rattus norvegicus, Fibroblast, 120 h, read-out: % colony formation relative to medium control
[7] = NMU plus stearic acid 10mg s.c. weekly
[8] = Homo sapiens, RT-112, 336 h, read-out: Colony-forming ability (± standard error)
[9] = summary of Table 3, dose-related response
[10] = Homo sapiens, 833K, 336 h, read-out: Colony-forming ability (± standard error)
[11] = Rattus norvegicus, 120 h, read-out: % colony formation relative to medium control

CCCCCCCCCCCCCCCCCC(=O)O [stearic acid, octadecanoic acid]
activity at 0.001 µg/mL [1, 6]: 90%
activity at 0.01 µg/mL [1, 6]: 108%
activity at 0.1 µg/mL [1, 6]: 85.8%
activity at 1 µg/mL [1, 6]: 88.2%
activity at 10 µg/mL [1, 6]: 96.5%
activity at 50 µg/mL [1, 6]: 86.4%
Mean no colonies ± SE ([1]; stearic acid 1ng/ml): 49.5±9.5
Mean no colonies ± SE ([1]; stearic acid 100 ng/ml): 47.2±9.4
Mean no colonies ± SE ([1]; stearic acid 1µg/ml): 48.5±9.2
Mean no colonies ± SE ([1]; stearic acid 10 µg/ml): 52.0±7.7
Mean no colonies ± SE ([1]; stearic acid 50 µg/ml): 47.5±6.0
inhibition of colony development ([1]; summary of Table 2): failed to inhibit
cell division (colony formation) ([2]; incubation for two weeks, inhibition related to dose): failed to divide
inhibition of cell division ([2]; two weeks): complete inhibition of cell division
animals that had developed mammary tumours by week 16 (mammary carcinoma; NMU plus stearic acid 10mg in liquid paraffin s.c. weekly from second week, ten rats, NMU alone 19 out of 20): five of the original ten
rats with tumours among the 8 live rats killed at week 22 (mammary carcinoma; [7]): three
tumour-free rats among the 8 live rats killed at week 22 (mammary carcinoma; [7]): five
mean tumours per rat (mammary carcinoma; NMU plus stearic acid 10mg s.c. weekly, NMU alone 2.68, p less than 0.001): 1.4 tumours per rat
average tumour weight (mammary carcinoma; NMU plus stearic acid 10mg s.c. weekly, NMU alone 23.6g per rat, p less than 0.01): 16.4 g/rat
mean latent period (mammary carcinoma; NMU plus stearic acid 10mg s.c. weekly, NMU alone 72 days): 74 days
rats that had died by week 22 (mammary carcinoma; NMU plus stearic acid 10mg s.c. weekly, of ten rats, NMU alone all 19 with tumours died): 2
activity at 1 µg/mL [3, 8]: 92%
activity at 2 µg/mL [3, 8]: 86%
activity at 4 µg/mL [3, 8]: 45%
activity at 6 µg/mL [3, 8]: 4.6%
activity at 8 µg/mL [3, 8]: 0.3%
activity at 10 µg/mL [3, 8]: 0%
inhibition of colony formation [3, 9]: inhibited colony formation
activity at 1 µg/mL [4, 10]: 81.5%
activity at 2 µg/mL [4, 10]: 70.4%
activity at 4 µg/mL [4, 10]: 27.5%
activity at 6 µg/mL [4, 10]: 0.9%
activity at 8 µg/mL [4, 10]: 0%
activity at 10 µg/mL [4, 10]: 0%
inhibition of colony formation [4, 9]: inhibited colony formation
inhibition of cell division / cell growth [5]: inhibits cell division; also recorded: (+) = some inhibition of cell growth at this concentration of fatty acid supplementation
inhibition of colony formation (D262A Rat hepatoma): significant inhibition of colony formation
activity at 0.01 µg/mL (D262A Rat hepatoma; [11]): 88%
activity at 0.1 µg/mL (D262A Rat hepatoma; [11]): 101%
activity at 1 µg/mL (D262A Rat hepatoma; [11]): 83.2%
activity at 10 µg/mL (D262A Rat hepatoma; [11]): 74.7%
activity at 50 µg/mL (D262A Rat hepatoma; [11]): 32.4%
Mean no colonies ± SE (D262A Rat hepatoma; stearic acid 10ng/ml): 216.0± 8.8
Mean no colonies ± SE (D262A Rat hepatoma; stearic acid 100 ng/ml): 247.8± 8.3
Mean no colonies ± SE (D262A Rat hepatoma; stearic acid 1μg/ml): 203.8±18.1
Mean no colonies ± SE (D262A Rat hepatoma; stearic acid 10 μg/ml): 190.3±13.6
Mean no colonies ± SE (D262A Rat hepatoma; stearic acid 50 μg/ml): 79.3± 7.1
development of tumours (malignant cells): inhibits the development of tumours
